Like-named read-outs stand apart in the source and are kept apart here.
Tests used:
[1] = tested on: MCF-7 human breast cancer cell line; assay: MTT cytotoxicity assay, MCF-7; format: cell-based; details: for IC50: Homo sapiens; for selectivity index MCF-7: IC50 HDF / IC50 MCF-7
Experimental: (§1) Two different human breast cancer cell lines (MCF-7 and MDA-MB-231), lung cancer cell line (A-549) and normal cell (Human Dermal Fibroblast) were purchased from Pasture Institute of Iran, Tehran, Iran. The medium of RPMI 1640 (PAA, Germany) including sodium bicarbonate and N-hydroxyethylpiperazone-n-2-ethanesulfonic Acid (HEPES, Biosera, England) was used to maintain the cell lines. The medium was enriched with fetal bovine serum (FBS; Gibco, USA) and antibiotics. Then, incubated in air atmosphere enriched 5% CO2 at 37 °C. The cytotoxic activity of all fractions and compounds were examined by the MTT (3-[4,5-dimethylthiazole-2-yl]-2,5-diphenyltetrazolium bromide) (Sigma-Aldrich, USA) assay.
(§2) Cancer is the second leading cause of death and responsible for approximately 13% of mortality in the world. […] One of the efficient approaches to new drugs is screening herbal extracts. In the present study, S. macrosiphon was selected for the possible cytotoxic activity. For this purpose, different fractions of aerial parts of the plants including n-hexane, chloroform, ethyl acetate, and water-soluble fractions were screened towards lung cancer cell line (A549) and breast cancer cell lines (MCF-7 and MDA-MB-231) as well as normal cell, human dermal fibroblasts (HDF), using MTT assay comparing with etoposide as a standard drug (Table 2). The inhibitory concentration, 50% (IC50) values (µg /mL) were calculated by linear regression analysis, expressed in mean ± SD.

[2] = tested on: A549 lung cancer cell line; assay: MTT cytotoxicity assay, A549; format: cell-based, human; details: for IC50: Homo sapiens; for selectivity index A549: IC50 HDF / IC50 A549
Experimental: as §1, §2

[3] = tested on: MDA-MB-231 human breast cancer cell line; assay: MTT cytotoxicity assay, MDA-MB-231; format: cell-based; details: for IC50: Homo sapiens; for selectivity index MDA-MB-231: IC50 HDF / IC50 MDA-MB-231
Experimental: as §1, §2

[4] = set-up: method as in earlier work; details: earlier report; cited from earlier work
[5] = tested on: Human Dermal Fibroblast (HDF); assay: MTT cytotoxicity assay, normal cells; format: cell-based; details: read-out: IC50 HDF
Experimental: as §1, §2

[6] = MDA-MB-231, read-out: IC50 MDA-MB-231
[7] = MCF7, MTT assay, isolated compounds, read-out: IC50 MCF-7
[8] = A549, MTT assay, isolated compounds, read-out: IC50 A549
[9] = MTT assay, normal cells, isolated compounds
[10] = MDA-MB-231, MTT assay, isolated compounds, read-out: IC50 MDA-MB-231

| melting point [°C] | SMILES | IC50 ([1]; MCF7, read-out: IC50 MCF-7) [µM] | IC50 ([2]; A549, read-out: IC50 A549) [µM] | IC50 [3, 6] [µM] | cytotoxicity [4] | selectivity index MCF-7 [1] | selectivity index A549 [2] | IC50 [5] [µM] | selectivity index MDA-MB-231 [3] | IC50 [1, 7] [µM] | IC50 [2, 8] [µM] | IC50 [5, 9] [µM] | IC50 [3, 10] [µM] | IC50 ([1]; MCF7, MTT assay, mean ± SD, fractions of S. macrosiphon, read-out: IC50 MCF-7) [µg/mL] | IC50 ([2]; A549, MTT assay, mean ± SD, fractions of S. macrosiphon, read-out: IC50 A549) [µg/mL] | IC50 ([5]; MTT assay, normal cells, mean ± SD, fractions of S. macrosiphon) [µg/mL] | IC50 ([3]; MDA-MB-231, MTT assay, mean ± SD, fractions of S. macrosiphon, read-out: IC50 MDA-MB-231) [µg/mL] |
| --- | --- | --- | --- | --- | --- | --- | --- | --- | --- | --- | --- | --- | --- | --- | --- | --- | --- |
|  | CC[C@H](CC[C@@H](C)[C@H]1CC[C@H]2[C@@H]3CC=C4C[C@@H](O)CC[C@]4(C)[C@H]3CC[C@]12C)C(C)C [Compound 4, β-sitosterol] | > 100 | > 100 | > 100 | no activity |  |  |  |  |  |  |  |  |  |  |  |  |
|  | C=C[C@]1(C)CCC2[C@@]3(C)CCCC(C)(C)C3CC[C@@]2(C)O1 (stereo partly drawn) [Compound 1, 13-epi manoyl oxide] | 15.8 ± 0.35 | 19.4 ± 1.96 | 22.2 ± 1.72 |  | 21.4 | 17.4 | 338 ± 9.2 | 15.2 |  |  |  |  |  |  |  |  |
|  | COc1ccc(-c2cc(=O)c3c(O)cc(OC)cc3o2)cc1 [Compound 3, 5-hydroxy-7,4'-dimethoxyflavone] |  |  |  |  |  |  |  |  | 428 ± 23.1 | 469 ± 22.8 | > 971 | 470 ± 23.1 |  |  |  |  |
| 95 to 98 | C=C[C@]1(C)CCC2[C@@]3(C)CCCC(C)(C)C3[C@@H](O)C[C@@]2(C)O1 (stereo partly drawn) [Compound 2, 6α-hydroxy-13-epimanoyl oxide] |  |  |  |  |  |  |  |  | 98 ± 11.3 | 170 ± 11.6 | > 653 | 120 ± 5.09 |  |  |  |  |
|  | COc1cc([C@@H]2c3cc4c(cc3[C@@H](O[C@@H]3O[C@@H]5CO[C@@H](C)O[C@H]5[C@H](O)[C@H]3O)[C@H]3COC(=O)[C@H]23)OCO4)cc(OC)c1O [Etoposide, reference compound] |  |  |  |  | 4.2 | 5.6 |  | 4.6 | 37.5 ± 0.66 | 28.2 ± 1.32 | 158 ± 2.04 | 34.5 ± 0.36 | 22.1 ± 0.39 | 16.6 ± 0.78 | 92.7 ± 1.2 | 20.3 ± 0.21 |

From article PMC7814726, “Phytochemical constituents and biological activities of Salvia macrosiphon Boiss” (BMC Chemistry, 2021)
